# Columns and labels:
# Assay type in all cases: in vivo
# male CD-1 ICR mice [1] = assay: Elevated plus-maze test; settings: DZP 2 mg/kg, i.p., P < 0.05 vs control
# From the text: The elevated plus-maze test is widely used for the screening and evaluation of anxiolytic drugs. The apparatus consists of two open arms (30 cm × 5 cm) and two enclosed arms (30 cm × 5 cm × 15 cm), which is elevated 45 cm above the ground. The entire maze was made of clear Plexiglas and illuminated by four 30 W white lights with 300 lx light intensity arranged as a cross 100 cm above the maze. 48 male CD-1 ICR mice were randomly divided into either the vehicle group, one of three doses of l–THBr groups, or the diazepam group. 30 min after injection, mice were gently placed on the center platform facing an open arm, and the number of entries and the time spent in both arms were recorded by a video camera for 5 min. The results were expressed as the percentage of entries into the open arms (%) = (the number of entries into the open arms / the total number of entries into the four arms) × 100%; and the percentage of time spent in the open arms (%) = (time spent in the open arms / total time spent in the four arms) × 100%.
# In a separate experiment, WAY100635 (a 5-HT1A antagonist) was used to test whether the anxiolytic-like activity of l-THBr is mediated by the activation of the 5-HT1A receptor. Forty male CD-1 ICR mice were randomly divided into one of four groups: vehicle, WAY100635 (3 mg/kg, i.p.), l–THBr (5 mg/kg, i.p.) or WAY100635 (3 mg/kg, i.p.) + l–THBr (5 mg/kg, i.p.). Mice were administered vehicle or WAY100635 followed by vehicle or l–THBr (5 mg/kg) injections 15 min later. The test was performed 30 min after the administration of l-THBr or vehicle.
# male CD-1 ICR mice [2] = assay: Locomotor activity test; settings: DZP 2 mg/kg, i.p., 60 min
# From the text: The spontaneous activity video analysis system consists of 8 sound-attenuated chambers (40 cm × 40 cm × 65 cm) with a built-in infrared camera. (JL Behave, Shanghai Ji-Liang Software Technology Co., Ltd). During the behavioral tests, the experimenter was outside the testing room, and the chambers were cleaned between successive runs. Forty male CD-1 ICR mice were allowed to acclimate for three days in home cages and were handled for another three days to minimize stress after arrival in the animal facility. On the following day, after habituation to the activity chambers for 60 min, mice were administered vehicle, diazepam (DZP, 2 mg/kg, i.p.) or l–THBr (1, 5, or 10 mg/kg, i.p.) and immediately placed into the test chambers to record their locomotor activity for 60 min.
# male CD-1 ICR mice [3] = assay: Light-dark box test; settings: DZP 2 mg/kg, 30 min before test, P < 0.05 vs vehicle
# From the text: The light-dark box test is a sensitive model to detect activity in disorders related to anxiety, based on the innate aversion of rodents to brightly lit areas and on their spontaneous exploratory behavior in response to a novel environment. The light-dark transition box is a polypropylene animal cage (44 cm × 21 cm × 21 cm), which is divided into two compartments, a light box (illuminated by a 60 W light source with 1000 lx light intensity) and a dark box. Forty-eight male CD-1 ICR mice were placed in the light box 30 min after l–THBr or DZP injection and allowed to move freely to both boxes for 5 min. The number of transitions between the two boxes were recorded by a video camera.
smiles,measurement,setting,value
"CN1C(=O)CN=C(c2ccccc2)c2cc(Cl)ccc21 [Diazepam, reference compound]",percentage of entries into the open arms,male CD-1 ICR mice [1],significant increase
same,percentage of time spent in the open arms,male CD-1 ICR mice [1],significant increase
same,influence on locomotor activity (travel distance),male CD-1 ICR mice [2],no influence
same,number of transitions between the light/dark sides,male CD-1 ICR mice [3],increased

# From article PMC5234788 (PLoS ONE, 2017)
